Values of other authors, collected in US6770263B1, “Compositions and methods for the treatment of aches and pains” (NatureWell, Incorporated, priority 2001, dated 2004).

Conditions: following the administration of 500 mg aspirin

plasma level: 130 µM
SMILES: CC(=O)Oc1ccccc1C(=O)O [aspirin, acetylsalicylic acid]
